Test results reported in patent publication US9988347B2, “Herbicidally active arylcarboxylic acid amides” (BAYER CROPSCIENCE AKTIENGESELLSCHAFT, priority 2014, dated 2018).

Columns and labels:
Format in all cases: in vivo
[1] = system: PHBPU (Pharbitis purpureum); experiment: Pre-emergence herbicidal action against harmful plants; conditions: dosage 320 g/ha, scored visually after 3 weeks (Table I)
Excerpt: (§1) 1. Pre-Emergence Herbicidal Action Against Harmful Plants
(§2) Seeds of monocotyledonous and dicotyledonous weed plants and crop plants are laid out in wood-fiber pots in sandy loam and covered with soil. The compounds of the invention and, for comparative purposes, the compounds known from the prior art, formulated in the form of wettable powders (WP) or as emulsion concentrates (EC), are then applied to the surface of the covering soil as aqueous suspension or emulsion at a water application rate equating to 600 to 800 I/ha with addition of 0.2% of wetting agent. After the treatment, the pots are placed in a greenhouse and kept under good growth conditions for the trial plants. The damage to the test plants is scored visually after a test period of 3 weeks by comparison with untreated controls (herbicidal activity in percent (%): 100% activity=the plants have died, 0% activity=like control plants).

[2] = system: LOLMU (Lolium multiflorum); experiment: as above; conditions: dosage 320 g/ha
Excerpt: as §1, §2

[3] = system: MATIN (Matricaria inodora); experiment: as above; conditions: dosage 320 g/ha, scored visually after 3 weeks (Table F)
Excerpt: as §1, §2

[4] = system: AMARE (Amaranthus retroflexus); experiment: as above; conditions: 504 h, dosage 320 g/ha
Excerpt: as §1, §2

[5] = system: POLCO (Polygonum convolvulus); experiment: Post-emergence herbicidal action against harmful plants; conditions: dosage 80 g/ha, assessed visually after about 3 weeks (Table L)
Method: (§3) 2. Post-Emergence Herbicidal Action Against Harmful Plants
(§4) Seeds of monocotyledonous and dicotyledonous weed and crop plants are laid out in sandy loam in wood-fiber pots, covered with soil and cultivated in a greenhouse under good growth conditions. 2 to 3 weeks after sowing, the test plants are treated at the one-leaf stage. The compounds of the invention, formulated in the form of wettable powders (WP) or as emulsion concentrates (EC), are then sprayed onto the green parts of the plants in the form of an aqueous suspension or emulsion at a water application rate equating to 600 to 800 I/ha, with addition of 0.2% wetting agent. After the test plants have been left to stand in the greenhouse under optimal growth conditions for about 3 weeks, the action of the preparations is assessed visually in comparison to untreated controls (herbicidal action in percent (%): 100% activity=the plants have died, 0% activity=like control plants).

[6] = system: MATIN (Matricaria inodora); experiment: as above; conditions: dosage 80 g/ha
Method: as §3, §4

STEME (Stellaria media) = experiment: as above; conditions: dosage 80 g/ha, assessed visually after about 3 weeks (Table K)
Method: as §3, §4

[7] = system: POLCO (Polygonum convolvulus); experiment: Pre-emergence herbicidal action against harmful plants; conditions: dosage 320 g/ha
Excerpt: as §1, §2

[8] = system: CYPES (Cyperus serotinus); experiment: as above; conditions: dosage 320 g/ha
Excerpt: as §1, §2

VERPE (Veronica persica) = experiment: as above; conditions: dosage 320 g/ha, scored visually after 3 weeks (Table E)
Excerpt: as §1, §2

[9] = system: ALOMY (Alopecurus myosuroides); experiment: as above; conditions: dosage 320 g/ha, scored visually after 3 weeks (Table C)
Excerpt: as §1, §2

AVEFA (Avena fatua) = experiment: as above; conditions: dosage 320 g/ha, scored visually after 3 weeks vs untreated controls (100% = plants have died, 0% = like control plants)
Excerpt: as §1, §2

[10] = scored visually after 3 weeks (Table I)
[11] = scored visually after 3 weeks (Table F)
[12] = assessed visually after about 3 weeks (Table L)
[13] = assessed visually after about 3 weeks (Table K)
[14] = scored visually after 3 weeks vs untreated controls (100% = plants have died, 0% = like control plants)
[15] = scored visually after 3 weeks (Table B)
[16] = scored visually after 3 weeks (Table E)
[17] = scored visually after 3 weeks (Table C)

CCn1nnnc1NC(=O)c1ccc(C)c(SOC)c1C
Activity against PHBPU [1]: 60%
Activity against LOLMU [2, 10]: 30%

COSc1c(C2OCCO2)ccc(C(=O)Nc2ncnn2C)c1C
Activity against MATIN [3]: 0%
pest or weed control at 320 g/ha [4, 11]: 20%

COSc1c(Cl)ccc(C(=O)Nc2ncnn2C)c1C
Activity against MATIN [3]: 30%
pest or weed control at 320 g/ha [4, 11]: 70%

COSc1c(C=O)ccc(C(=O)Nc2ncnn2C)c1C
Activity against MATIN [3]: 0%
pest or weed control at 320 g/ha [4, 11]: 40%

CSc1c(C(F)(F)F)ccc(C(=O)Nc2nnc(C)o2)c1C
Activity against POLCO [5]: 0%
Activity against MATIN [6, 12]: 60%

COSc1c(C2CC2)ccc(C(=O)Nc2ncnn2C)c1C
Activity against MATIN [3]: 80%
pest or weed control at 320 g/ha [4, 11]: 90%

CSc1c(C2CC2)ccc(C(=O)Nc2ncc(C)o2)c1C
Activity against STEME (STEME (Stellaria media)): 90%
Activity against MATIN [6, 13]: 80%

COSc1c(C#N)ccc(C(=O)Nc2ncnn2C)c1C
Activity against MATIN [3]: 0%
pest or weed control at 320 g/ha [4, 11]: 60%

CSc1c(Br)ccc(C(=O)Nc2nnnn2C)c1C [reference compound]
Activity against POLCO [7, 14]: 70%
Activity against CYPES [8, 14]: 0%

CSc1c(I)ccc(C(=O)Nc2nnc(C)o2)c1C
Activity against POLCO [5]: 20%
Activity against MATIN [6, 12]: 60%

CSc1c(C2CC2)ccc(C(=O)Nc2nnnn2C)c1C [drawing 21]
Activity against POLCO [7, 15]: 90%
Activity against CYPES [8, 15]: 90%

CSc1c(C2CC2)ccc(C(=O)Nc2nnnn2C)c1C [drawing 18]
Activity against POLCO [7, 14]: 90%
Activity against CYPES [8, 14]: 90%

CSc1c(I)ccc(C(=O)Nc2ncnn2C)c1C
Activity against VERPE (VERPE (Veronica persica)): 0%
pest or weed control at 320 g/ha [4, 16]: 60%

CSc1c(C=O)ccc(C(=O)Nc2ncnn2C)c1C
Activity against VERPE (VERPE (Veronica persica)): 0%
pest or weed control at 320 g/ha [4, 16]: 30%

CSc1c(I)ccc(C(=O)Nc2nnnn2C)c1C
Activity against POLCO [7, 15]: 20%
Activity against CYPES [8, 15]: 0%

CSc1c(C2OCCO2)ccc(C(=O)Nc2nnnn2C)c1C [drawing 28]
Activity against ALOMY [9]: 0%
pest or weed control at 320 g/ha [4, 17]: 0%

CSc1c(C=O)ccc(C(=O)Nc2nnnn2C)c1C [drawing 25]
Activity against POLCO [7, 15]: 0%
Activity against CYPES [8, 15]: 0%

CSc1c(C2CC2)ccc(C(=O)Nc2ncnn2C)c1C
Activity against VERPE (VERPE (Veronica persica)): 90%
pest or weed control at 320 g/ha [4, 16]: 100%

COSc1c(C2CC2)ccc(C(=O)Nc2nnnn2C)c1C
Activity against ALOMY [9]: 90%
pest or weed control at 320 g/ha [4, 17]: 100%

CSc1c(N(C)C)ccc(C(=O)Nc2nnnn2C)c1C
Activity against POLCO [7, 15]: 0%
Activity against CYPES [8, 15]: 30%

CSc1cccc(C(=O)Nc2nnnn2C)c1C [drawing 19, reference compound]
Activity against POLCO [7, 14]: 0%
Activity against CYPES [8, 14]: 30%

CSc1c(C#N)ccc(C(=O)Nc2ncnn2C)c1C
Activity against VERPE (VERPE (Veronica persica)): 70%
pest or weed control at 320 g/ha [4, 16]: 80%

CCn1nnnc1NC(=O)c1ccc(C2CC2)c(SC)c1C
Activity against AVEFA (AVEFA (Avena fatua)): 100%
Activity against LOLMU [2, 14]: 90%

CSc1c(C2OCCO2)ccc(C(=O)Nc2ncnn2C)c1C
Activity against VERPE (VERPE (Veronica persica)): 0%
pest or weed control at 320 g/ha [4, 16]: 0%

CSc1c(Cl)ccc(C(=O)Nc2nnc(C)o2)c1C
Activity against STEME (STEME (Stellaria media)): 70%
Activity against MATIN [6, 13]: 60%

CSc1c(C2OCCO2)ccc(C(=O)Nc2nnnn2C)c1C [drawing 24]
Activity against POLCO [7, 15]: 30%
Activity against CYPES [8, 15]: 0%

CSc1c(C=O)ccc(C(=O)Nc2nnnn2C)c1C [drawing 29]
Activity against ALOMY [9]: 0%
pest or weed control at 320 g/ha [4, 17]: 0%

CCn1nnnc1NC(=O)c1ccc(C2CC2)c(SOC)c1C
Activity against PHBPU [1]: 100%
Activity against LOLMU [2, 10]: 100%

CSc1cccc(C(=O)Nc2nnnn2C)c1C [drawing 27]
Activity against ALOMY [9]: 20%
pest or weed control at 320 g/ha [4, 17]: 20%

CCn1nnnc1NC(=O)c1ccc(C)c(SC)c1C [reference compound]
Activity against AVEFA (AVEFA (Avena fatua)): 60%
Activity against LOLMU [2, 14]: 30%

CSc1c(C2CC2)ccc(C(=O)Nc2nnc(C)o2)c1C
Activity against POLCO [5]: 60%
Activity against MATIN [6, 12]: 80%

CSc1c(Br)ccc(C(=O)Nc2nnc(C)o2)c1C
Activity against STEME (STEME (Stellaria media)): 60%
Activity against MATIN [6, 13]: 40%
